Values after ≈ are worked out from the molar mass of the structure shown. “Also recorded” adds a separate entry of the source. Like-named read-outs stand apart in the source and are kept apart here.

The subject of one assay is E. coli ML35. The experiment in a line: E. coli ML35 cell permeabilization assay (ONPG→ONP conversion). Type of assay: cell-based. The note with it: 90 min, 37° C. How it is done:
E. coli ML35 [lacZ-(Con) ΔlacY] cannot take up the lactose mimic ONPG unless cell membrane integrity is compromised. Upon membrane permeabilization ONPG can diffuse into the bacterial cell cytoplasm where it is hydrolyzed by β-galactosidase into galactose and ONP. Since ONP absorbs at 400 nm, the permeabilization kinetics of membrane-disrupting agents can be monitored by OD400 absorbance measurement. Methodology here was very similar to previous studies. Log-phase E. coli cells were grown as described above, washed and resuspended in 10 mM Tris supplemented with 0.01 volume (1% vol/vol) TSB at pH 7.4 (Tris-TSB). In triplicate, bacteria (5×10^6 cells/well) were exposed to various concentrations of antibiotic (Pentobra, tobramycin, Pen peptide) in the presence of 2.5 mM ONPG for 90 min at 37° C. The kinetics of ONPG hydrolysis were measured by determining the absorbance at 400 nm using a plate reader spectrophotometer.
To characterize the membrane activity of Pentobra on bacteria, its permeabilization kinetics were monitored on live cells by conducting an enzymatic assay for the conversion of ortho-nitrophenyl β-D-galactopyranoside (ONPG) to ortho-nitrophenol (ONP) on the E. coli strain ML35. E. coli ML35 [lacZ-(Con) ΔlacY] constitutively expresses β-galactosidase (β-gal) but lacks the lactose permease necessary for uptake of the lactose analogue ONPG. […]

Assay [1] relates to S. aureus S113 persister cells. Briefly: persister cell plate killing assay. Type of assay: cell-based, Staphylococcus aureus. The following applies: 1.5 h. The procedure:
Procedure for preparing S. aureus SA113 and E. coli Dh5α persister cells were based on previous protocols. Cells from freshly streaked agar plates were inoculated in 1 mL TSB and incubated 16 h at 37° C. in a shaker incubator to obtain stationary phase cultures. Non-persister cells were eliminated by adding ampicillin to a final concentration of 100 μg/mL, followed by 3 h incubation at 37° C.
S. aureus cells were diluted 10× into 10 mM Pipes at pH 7.4 buffer for a bacteria stock solution of roughly 10^9 CFU/mL. 20 μL S. aureus suspension was introduced into 180 μL Pipes buffer containing various concentrations of antibiotic (Pentobra, tobramycin) in 96 well plates for a total of ˜10^8 CFU/well. The plates were sealed with parafilm, loaded onto microplate shakers and placed in 37° C. incubator for 1.5 h. After incubation, 10-fold serial dilutions were made in Pipes buffer. Half of each dilution (100 μL) was spotted onto LB agar plates and incubated overnight at 37° C. to yield visible colonies. The S. aureus persister assays were performed in triplicate. The data shown are averages from two independent trials and were representative of the three assays.
The bactericidal effects of Pentobra against persistent bacteria were investigated with plate killing assays. […]

The subject of assay [2] is MCP-1, MDC, IP-10 and IL-12p40 in human monocytes. The experiment in a line: chemokine/cytokine gene expression in P. acnes-stimulated monocytes (real-time PCR). It counts as cell-based. The following applies: 24 hrs co-treatment. The procedure: Peripheral blood mononuclear cells (PBMCs) were isolated from whole blood of normal healthy donors as approved by the Institutional Review Board at UCLA using Ficoll-Paque gradients (GE Healthcare, Piscataway, N.J.) and plated onto six-well tissue culture plates (20×10^6-30×10^6 per well) for 2 hours in RPMI 1640 medium (Invitrogen Life Technologies, Carlsbad, Calif.) supplemented with 1% fetal calf serum (Omega Scientific, Tarzana, Calif.). Nonadherent cells were removed by rigorously washing three times with RPMI. Adherent monocytes were stimulated (co-treated) with media or P. acnes in the presence of tobramycin or Pentobra in 10% fetal calf serum. P. acnes was used at an MOI of 0.5 and cells were cultured for 24 hours at 37° C.
Monocytes were stimulated with media or P. acnes in the presence of tobramycin or Pentobra. Total RNA was isolated using Trizol reagent (Invitrogen, Carlsbad, Calif.) following manufacturer's protocol and treated with RNase-free DNase. RNA concentration and quality were determined by spectrophotometry. RNA samples were reverse-transcribed to cDNA using iScript cDNA synthesis kit (Bio-Rad, Hercules, Calif.). Reactions were done at 25° C. for 5 minutes, 42° C. for 30 minutes and 85° C. for 5 minutes. Real-time PCR was applied using iQ SYBR Green supermix (Bio-Rad). Forty cycles were carried out at 95° C. for 5 minutes, then 95° C. for 10 seconds, 55° C. for 20 seconds, 72° C. for 20 seconds. GAPDH was used as a control. Gene expression level was quantified by the comparative method 2-ΔΔCT.
Monocytes were cultured and evaluated for cytokine and chemokine expression by ELISA and real time PCR after 24 hrs.
(In general: Quantitative PCR measures a nucleic acid by following its amplification.)

A further assay relates to Acinetobacter (AcB). The experiment in a line: microbe, parasite or virus in culture. It counts as cell-based. The following applies: Acinetobacter; isolate AcB, PM1434; read-out: MIC. An excerpt: (§1) Pentobra was screened against a broad panel of microbial pathogens, including strains of E. coli, MRSA, Klebsiella (Kleb), Acinetobacter (AcB), Vancomycin-Sensitive Enterococci (VSE) and Vancomycin-Resistant Enterococci (VRE), and specifically including E. faecalis samples. […] The experimenter reported the minimum inhibitory concentration (MIC) in mass units per unit volume (μg/mL) for each compound, and MIC data were converted into molar concentrations (μM) due to the large difference between the molecular weight of tobramycin (467.5 g/mol) and Pentobra (2277 g/mol).

Assay [3] deals with E. coli. The experiment in a line: microbe, parasite or virus in culture. Type of assay: cell-based. The note with it: Escherichia coli.
Text: as §1

A further assay relates to Klebsiella (Kleb). Briefly: microbe, parasite or virus in culture. Type of assay: cell-based. The following applies: Klebsiella; isolate Kleb, W6921701-1; read-out: MIC.
Text: as §1

The test system of the next assay is MRSA. Briefly: microbe, parasite or virus in culture. The following applies: isolate MRSA. It counts as cell-based.
Text: as §1

Assay [4] has as its system Vancomycin-Resistant Enterococci (VRE). Briefly: microbe, parasite or virus in culture. It counts as cell-based. The note with it: Enterococcus, read-out: MIC.
Text: as §1

Assay [5] relates to E. coli. The experiment in a line: antimicrobial activity (MIC) of P-L-A conjugates. It counts as cell-based.

As for `NC[C@H]1O[C@H](O[C@H]2[C@H](O)[C@@H](O[C@H]3O[C@H](CO)[C@@H](O)[C@H](N)[C@H]3O)[C@H](N)C[C@@H]2N)[C@H](N)C[C@@H]1O` [tobramycin], in the assay with E. coli ML35, the “inner membrane permeabilization (400 nm absorbance, ONPG→ONP)” value is listed as “no membrane permeabilization occurred; also recorded: comparable to background”. Also, in assay [1] (range of tested concentrations), the “reduction in CFU” value was “less than one”. Also, the “killing activity against persister cells” value in assay [1] (varying concentrations) is reported as “little susceptibility”. The “inhibition of IL-12p40 gene expression” value in assay [2] is reported as “little to no inhibition”. In assay [2], the “inhibition of MCP-1 expression, comparison of the antibiotics” value was “more effective”. Further, the “P. acnes-induced IP-10 expression” value in [2] (p<0.001) was “completely abrogated”. Further, the MIC in the assay on Acinetobacter (AcB) is 34 µM (≈ 15.9 µg/mL); in the assay on E. coli [3] (ATCC25922, isolate ATCC 25922, Ecoli (second entry), read-out: MIC), 2 µM (≈ 0.935 µg/mL); against E. coli [3] (isolate ATCC Ecoli, 25922 (first entry)) it was 2 µM (≈ 0.935 µg/mL); in the assay with E. coli [3] (isolate Ecoli,YD461, read-out: MIC), 34 µM (≈ 15.9 µg/mL); in the assay with Klebsiella (Kleb) it was 68 µM (≈ 31.8 µg/mL); with MRSA (Staphylococcus aureus, F2806774, read-out: MIC) it was greater than 274 µM. Also, the MIC with MRSA (H2867813) was greater than 274 µM; in assay [4] (VRE, isolate F6541102, VRE) it was greater than 274 µM; in [4] (VRE, isolate H6926031, VRE*), 68 µM (≈ 31.8 µg/mL); in assay [4] (VRE, isolate M6865034, VRE), greater than 274 µM; in [4] (VRE, isolate S3899836, VRE^? (second entry)), greater than 274 µM; in assay [4] (VRE, isolate VRE, 24670), greater than 274 µM. The MIC in assay [4] (VRE, isolate VRE, S3899836) is greater than 274 µM; in assay [4] (isolate 24670, VRE^? (second entry)) it was greater than 274 µM. Also, the “MIC (μM) E. coli (mid-log)” value with E. coli [5] is 6.25 μM.

The values are drawn from US20170348337A1, “MULTIFUNCTIONAL MEMBRANE-ACTIVE AMINOGLYCOSIDE-PEPTIDE CONJUGATES” (priority 2014, published 2017).
